Data from PubChem BioAssay AID256 (DTP/NCI, 2004).
Inconclusive results and toxic doses are left out. The calls were made as follows: active = survival T/C of 150% or more; inactive = T/C below 125% in these data.

System: CD2F1 mice, L1210 leukemia ip, survival T/C
Test: NCI In Vivo Anticancer Drug Screen. Data for tumor model L1210 Leukemia (intraperitoneal) in CD2F1 (CDF1) mice
Settings: higher = longer survival
Outline: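 Activity against a transplanted murine tumor was judged by comparing the compound group with a vehicle group. The outcome in the treated animals was divided by that in the controls.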

[1] = endpoint: mean survival time, dose: 100.0 mg/kg/injection, schedule: Q01DX001 (ip), vehicle: saline with Tween-80
[2] = endpoint: mean survival time, dose: 200.0 mg/kg/injection, schedule: Q01DX001 (ip), vehicle: saline with Tween-80
[3] = endpoint: mean survival time, dose: 100.0 mg/kg/injection, schedule: Q04DX003 (ip), vehicle: Klucel (hydroxypropylcellulose) (HPC)
[4] = endpoint: mean survival time, dose: 200.0 mg/kg/injection, schedule: Q04DX003 (ip), vehicle: Klucel (hydroxypropylcellulose) (HPC)
[5] = endpoint: mean survival time, dose: 100.0 mg/kg/injection, schedule: Q01DX009 (ip), vehicle: saline with Tween-80
[6] = endpoint: mean survival time, dose: 100.0 mg/kg/injection, schedule: Q04DX003 (ip), vehicle: saline with Tween-80
[7] = endpoint: mean survival time, dose: 200.0 mg/kg/injection, schedule: Q01DX009 (ip), vehicle: saline with Tween-80
[8] = endpoint: mean survival time, dose: 200.0 mg/kg/injection, schedule: Q04DX003 (ip), vehicle: saline with Tween-80
[9] = endpoint: mean survival time, dose: 400.0 mg/kg/injection, schedule: Q01DX009 (ip), vehicle: saline with Tween-80
[10] = endpoint: mean survival time, dose: 400.0 mg/kg/injection, schedule: Q04DX003 (ip), vehicle: saline with Tween-80
[11] = endpoint: mean survival time, dose: 100.0 mg/kg/injection, schedule: Q01DX001 (ip), vehicle: saline
[12] = endpoint: mean survival time, dose: 100.0 mg/kg/injection, schedule: Q04DX003 (ip), vehicle: saline
[13] = endpoint: mean survival time, dose: 200.0 mg/kg/injection, schedule: Q04DX003 (ip), vehicle: saline
[14] = endpoint: mean survival time, dose: 400.0 mg/kg/injection, schedule: Q04DX003 (ip), vehicle: saline

Measured: T/C

CCN(CC)CCCC(C)Nc1cc(C)nc(Nc2nc3cc(Cl)c(Cl)cc3[nH]2)n1 (stereo not given)
inactive: endpoint: mean survival time, dose: 5.0 mg/kg/injection, schedule: Q04DX003 (ip), vehicle: saline with Tween-80 101 % of control | endpoint: mean survival time, dose: 10.0 mg/kg/injection, schedule: Q04DX003 (ip), vehicle: saline with Tween-80 94 % of control | endpoint: mean survival time, dose: 20.0 mg/kg/injection, schedule: Q04DX003 (ip), vehicle: saline with Tween-80 91 % of control

COC(=O)Nc1ccccc1
inactive: endpoint: mean survival time, dose: 100.0 mg/kg/injection, schedule: Q04DX003 (ip), vehicle: saline + alcohol 101 % of control | endpoint: mean survival time, dose: 200.0 mg/kg/injection, schedule: Q04DX003 (ip), vehicle: saline + alcohol 98 % of control | endpoint: mean survival time, dose: 400.0 mg/kg/injection, schedule: Q04DX003 (ip), vehicle: saline + alcohol 98 % of control

O=C(C1=CN(CCCO)CCC1)c1cc2ccccc2[nH]1
inactive: [1] 94 % of control | [2] 94 % of control | endpoint: mean survival time, dose: 400.0 mg/kg/injection, schedule: Q01DX001 (ip), vehicle: saline with Tween-80 97 % of control

Nc1c(C(=O)O)ncn1C1OC(CO)C(O)C1O (stereo not given)
inactive: endpoint: median survival time, dose: 7.88 mg/kg/injection, schedule: Q01DX005 (ip), vehicle: saline 101 % of control | endpoint: median survival time, dose: 15.75 mg/kg/injection, schedule: Q01DX005 (ip), vehicle: saline 104 % of control | endpoint: median survival time, dose: 31.5 mg/kg/injection, schedule: Q01DX005 (ip), vehicle: saline 104 % of control | endpoint: median survival time, dose: 63.0 mg/kg/injection, schedule: Q01DX005 (ip), vehicle: saline 103 % of control | endpoint: median survival time, dose: 126.0 mg/kg/injection, schedule: Q01DX005 (ip), vehicle: saline 92 % of control

O=C1OC(=O)C2C1CC1C(=O)OC(=O)C12 (stereo not given)
inactive: endpoint: mean survival time, dose: 50.0 mg/kg/injection, schedule: Q04DX003 (ip), vehicle: Klucel (hydroxypropylcellulose) (HPC) 97 % of control | [3] 100 % of control | [4] 96 % of control

CCCCCCCC(=O)Oc1ccc(N=Nc2ccc(OCC)cc2)cc1
inactive: [5] 93 % of control | [6] 95 % of control | [7] 90 % of control | [8] 95 % of control | [9] 98 % of control | [10] 89 % of control

Cc1ccc(NC(=O)Nc2ccccc2C(N)=O)cc1
inactive: endpoint: mean survival time, dose: 100.0 mg/kg/injection, schedule: Q01DX009 (ip), vehicle: saline sonified 97 % of control | endpoint: mean survival time, dose: 200.0 mg/kg/injection, schedule: Q01DX009 (ip), vehicle: saline sonified 98 % of control | endpoint: mean survival time, dose: 400.0 mg/kg/injection, schedule: Q01DX009 (ip), vehicle: saline sonified 100 % of control

CNC(=O)Nc1ccc(OS(=O)(=O)N(C)C)cc1
inactive: [6] 101 % of control | [8] 101 % of control | [10] 101 % of control

O=C(c1ccccc1)c1c[nH]c2ccccc12
inactive: [6] 100 % of control | [8] 86 % of control | [10] 90 % of control

CC(=O)Nc1cccc(N(CCOS(C)(=O)=O)CCOS(C)(=O)=O)c1
inactive: endpoint: mean survival time, dose: 0.5 mg/kg/injection, schedule: Q01DX009 (ip), vehicle: saline 122 % of control

Nc1nc2nc(-c3ccccc3)nc(N)c2nc1-c1ccc(N(CCO)CCO)cc1
inactive: endpoint: mean survival time, dose: 45.0 mg/kg/injection, schedule: Q01DX001 (ip), vehicle: saline 100 % of control | endpoint: mean survival time, dose: 67.0 mg/kg/injection, schedule: Q01DX001 (ip), vehicle: saline 97 % of control | [11] 97 % of control | endpoint: mean survival time, dose: 150.0 mg/kg/injection, schedule: Q01DX001 (ip), vehicle: saline 96 % of control

O=C(Nc1cccc2ccccc12)N(c1ccccc1)c1ccccc1
inactive: [11] 105 % of control | endpoint: mean survival time, dose: 200.0 mg/kg/injection, schedule: Q01DX001 (ip), vehicle: saline 96 % of control | endpoint: mean survival time, dose: 400.0 mg/kg/injection, schedule: Q01DX001 (ip), vehicle: saline 94 % of control

[C-]#[O+].[Cl][Sn]([Cl])[Cl].[Cl][Sn]([Cl])[Cl].[Pt].c1ccncc1
inactive: endpoint: median survival time, dose: 3.12 mg/kg/injection, schedule: Q04DX003 (ip), vehicle: saline with Tween-80 113 % of control | endpoint: median survival time, dose: 6.25 mg/kg/injection, schedule: Q04DX003 (ip), vehicle: saline with Tween-80 110 % of control | endpoint: median survival time, dose: 12.5 mg/kg/injection, schedule: Q04DX003 (ip), vehicle: saline with Tween-80 110 % of control | endpoint: median survival time, dose: 25.0 mg/kg/injection, schedule: Q04DX003 (ip), vehicle: saline with Tween-80 102 % of control | endpoint: median survival time, dose: 50.0 mg/kg/injection, schedule: Q04DX003 (ip), vehicle: saline with Tween-80 108 % of control | endpoint: median survival time, dose: 100.0 mg/kg/injection, schedule: Q04DX003 (ip), vehicle: saline with Tween-80 108 % of control | endpoint: median survival time, dose: 200.0 mg/kg/injection, schedule: Q04DX003 (ip), vehicle: saline with Tween-80 120 % of control

OC1CCC(CC2CCCCC2)CC1 (stereo not given)
inactive: [5] 95 % of control | [7] 92 % of control

Cc1ccc(C2=CSc3ccccc3N2)cc1
inactive: endpoint: mean survival time, dose: 100.0 mg/kg/injection, schedule: Q04DX002 (ip), vehicle: other 104 % of control | endpoint: mean survival time, dose: 200.0 mg/kg/injection, schedule: Q04DX002 (ip), vehicle: other 104 % of control

O=c1cc(CBr)c2ccccc2[nH]1
inactive: endpoint: mean survival time, dose: 25.0 mg/kg/injection, schedule: Q04DX003 (ip), vehicle: saline with Tween-80 103 % of control

c1cc2c(c(N3CCNCC3)c1)CCCC2
inactive: [1] 110 % of control | [2] 95 % of control

CCOc1ccc(NC(=S)N(C)C)cc1
inactive: endpoint: mean survival time, dose: 50.0 mg/kg/injection, schedule: Q01DX009 (ip), vehicle: saline with Tween-80 94 % of control | [5] 94 % of control | [6] 89 % of control | [7] 90 % of control | [8] 96 % of control

[N-]=[N+]=NCC1OC(OC2(CO)OC(CN=[N+]=[N-])C(O)C2O)C(O)C(O)C1O (stereo not given)
inactive: endpoint: mean survival time, dose: 50.0 mg/kg/injection, schedule: Q01DX009 (ip), vehicle: saline 102 % of control | endpoint: mean survival time, dose: 100.0 mg/kg/injection, schedule: Q01DX009 (ip), vehicle: saline 102 % of control

COCCOCCOCCOCCOCCN
inactive: [12] 103 % of control | [13] 101 % of control | [14] 103 % of control

C=CCNC(=O)/C=C/C(=O)O
inactive: [12] 97 % of control | [13] 97 % of control | [14] 103 % of control

O=c1oc(-c2ccccc2)nc2c(Cl)ccc(Cl)c12
inactive: endpoint: mean survival time, dose: 90.0 mg/kg/injection, schedule: Q04DX003 (ip), vehicle: other 107 % of control | endpoint: mean survival time, dose: 135.0 mg/kg/injection, schedule: Q04DX003 (ip), vehicle: other 97 % of control | endpoint: mean survival time, dose: 200.0 mg/kg/injection, schedule: Q04DX003 (ip), vehicle: other 119 % of control | endpoint: mean survival time, dose: 300.0 mg/kg/injection, schedule: Q04DX003 (ip), vehicle: other 102 % of control

O=C1CC(CO)CN1CCc1ccccc1 (stereo not given)
inactive: [5] 96 % of control | [7] 92 % of control | [9] 95 % of control

CCOC(=O)C1C(=O)N(c2ccccc2)C(=O)N1Cc1ccccc1 (stereo not given)
inactive: endpoint: mean survival time, dose: 12.5 mg/kg/injection, schedule: Q01DX009 (ip), vehicle: other 98 % of control | endpoint: mean survival time, dose: 25.0 mg/kg/injection, schedule: Q01DX009 (ip), vehicle: other 98 % of control | endpoint: mean survival time, dose: 50.0 mg/kg/injection, schedule: Q01DX009 (ip), vehicle: other 97 % of control | endpoint: mean survival time, dose: 100.0 mg/kg/injection, schedule: Q01DX009 (ip), vehicle: other 95 % of control | endpoint: mean survival time, dose: 200.0 mg/kg/injection, schedule: Q01DX009 (ip), vehicle: other 86 % of control

O=C1CCC(C(=O)O)=NN1
inactive: endpoint: mean survival time, dose: 12.5 mg/kg/injection, schedule: Q01DX009 (ip), vehicle: water 96 % of control | endpoint: mean survival time, dose: 25.0 mg/kg/injection, schedule: Q01DX009 (ip), vehicle: water 101 % of control | endpoint: mean survival time, dose: 50.0 mg/kg/injection, schedule: Q01DX009 (ip), vehicle: water 93 % of control | endpoint: mean survival time, dose: 100.0 mg/kg/injection, schedule: Q01DX009 (ip), vehicle: water 93 % of control | endpoint: mean survival time, dose: 200.0 mg/kg/injection, schedule: Q01DX009 (ip), vehicle: water 90 % of control

CCCCCCC(C)OC(=O)CCCc1ccc(N(CCCl)CCCl)cc1 (stereo not given)
inactive: endpoint: mean survival time, dose: 50.0 mg/kg/injection, schedule: Q01DX009 (ip), vehicle: acetone 104 % of control | endpoint: mean survival time, dose: 100.0 mg/kg/injection, schedule: Q01DX009 (ip), vehicle: acetone 104 % of control | endpoint: mean survival time, dose: 200.0 mg/kg/injection, schedule: Q01DX009 (ip), vehicle: acetone 104 % of control

CCOC(=O)c1cnc2c(cnn2CC)c1OCc1ccccc1
inactive: [3] 101 % of control | [4] 104 % of control | endpoint: mean survival time, dose: 400.0 mg/kg/injection, schedule: Q04DX003 (ip), vehicle: Klucel (hydroxypropylcellulose) (HPC) 108 % of control
